The nature of data set [1]: RP-HPLC stability (decomposition) of 20-OR ester prodrugs in PBS pH 7.4. Format: physicochemical. The text has this:
CPT glycinate fragmentation pattern [m/z(%)] was: 406 (25%), 331 (100%), 303 (30%); CPT ortho lactone fragmentation pattern was: 406 (100%), 388 (40%), 303 (20%). […] HPLC data for each analog studied was consistent with the generation of the novel decomposition products, along with the lactone and carboxylate forms of the parent drug. […] N-methyl CPT glycinate fragmentation pattern [m/z(%)] was: 420 (86%), 331 (100%), 303 (30%); CPT N-methyl ortho lactone fragmentation pattern was: 420 (100%), 402 (50%), 303 (37%). As in the case for the camptothecin glycinate ester, the novel degradation products were generated from the proposed lactam intermediate. Further evidence for proposed degradation products 3 and 4 includes: (1) Glycine carbonyl ^13C isotopic labeling NMR experiment in PBS showing that this carbon exists as a tetrahedral carbon as in 3. (2) Glycine ^15N isotopic labeling NMR experiments showing that 3 and 4 have amide bonds.

Data set [2] is classed as in vitro ADME, human. The conditions noted are these: for prodrug decomposition: PBS pH 7.4, human plasma and blood, RP-HPLC.
A short description of data set [3]: Stability of free and core-loaded liposomal prodrug in whole blood.

Turning to `CCC1(OC(=O)CCCN)C(=O)OCc2c1cc1n(c2=O)Cc2cc3ccccc3nc2-1` (stereo not drawn) [R=COCH2CH2CH2NH2, camptothecin 4-aminobutanoate ester], the half-life of decomposition in data set [1] (buffer, pH 7.4) was determined as 36.7 h. For the compound `CCc1c2c(nc3ccc(O)cc13)-c1cc3c(c(=O)n1C2)COC(=O)C3(CC)OC(=O)CN` (stereo not drawn) [SN-38 glycinate ester], the prodrug decomposition result in data set [2] is recorded as “extensive chemical (i.e. non-enzymatic) decomposition”. `CC[C@@]1(OC(C)=O)C(=O)OCc2c1cc1n(c2=O)Cc2cc3ccccc3nc2-1` [camptothecin-20(S)-acetate, reference compound]: the stability / hydrolysis result in data set [2] (pH 7.4) was “excellent stability”. Take `CCC1(OC(=O)CN)C(=O)OCc2c1cc1n(c2=O)Cc2cc3ccccc3nc2-1` [camptothecin-20(S)-glycinate 1, camptothecin-20(S)-glycinate]: the decomposition in data set [1] (1 μM, PBS (pH 7.4), 37° C., within 3 hours) is reported as around 90%. Moreover, the prodrug decomposition result in data set [2] was “extensive chemical (i.e. non-enzymatic) decomposition”. For the compound DB-67 4-aminobutanoate ester, in data set [3], the “decomposition of free prodrug” value is “extensive”.
